The values that follow come from ChEMBL document CHEMBL1201862, “PubChem BioAssay data set” (2004).

The structures appear in SMILES notation.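 Five compound concentrations were applied to cells in 96-well plates for 48 hours; endpoints were derived by simple linear interpolation of the resulting dose-response curve. At the GI50, growth is halved.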 Activity calls are given as the source filed them. Rule as the data show it: active = GI50 up to about 1.1 µM and inactive = higher. Bounds are passed on as bounds.

What all share (assay): DTP human tumour cell line panel, 48 h
Test [1] deals with COLO 205.
Test [2] has as its system HCT-116.
Test [3] relates to SK-MEL-5.
Test [4] deals with EKVX.
Test [5] concerns A498.
The subject of test [6] is RXF 393.
In test [7] the test system is SN12C.
The test system of test [8] is UACC-257.
In test [9] the test system is UO-31.
Test [10] deals with KM12.
The subject of test [11] is NCI-H522.
The subject of test [12] is HOP-62.
The subject of test [13] is LOX IMVI.
Test [14] has as its system HT-29.
Test [15] deals with SF-268.
In test [16] the test system is RPMI-8226.
Test [17] concerns NCI-H460.
For test [18], the system named is HL-60.
Test [19] relates to CCRF-CEM.

Usually GI50 stands for the concentration giving 50% growth inhibition.

Turning to `CCOC(=O)C1(C/C=C\CBr)CCCC1=O` (configuration not stated), the GI50 in test [1] is 37.3 µM (inactive); in [2] it was 19.5 µM (inactive); in [3], 26.7 µM (inactive); in test [4] it was > 100 µM (inactive); in test [5] it was > 100 µM (inactive); in test [6], 16.6 µM (inactive). Besides, the GI50 was 18.4 µM (inactive) in test [7]; 39 µM (inactive) in test [8]; 21.9 µM (inactive) in [9]; 32.1 µM (inactive) in [10]; 21.4 µM (inactive) in test [11]; 29.1 µM (inactive) in test [12]. For the same compound, the GI50 in test [13] was 15.7 µM (inactive); in [14], 29.3 µM (inactive); in test [15], 32.5 µM (inactive).
With `CCNC(=O)O/N=C1\CCC2[C@@H]3CC=C4C[C@@H](OC(=O)NCC)CC[C@]4(C)C3CC[C@]12C` (some centres not stated), the 50% growth inhibitory concentration (GI50) was 0.387 µM (active) in test [1]; 0.57 µM (active) in test [2]; 0.807 µM (active) in test [3]; 0.735 µM (active) in test [4]; 22.3 µM (inactive) in test [5]; 3.42 µM (inactive) in [6]. Further, the GI50 in test [7] is 2.65 µM (inactive); in test [8] it was 0.422 µM (active); in test [9], 1.21 µM (inactive); in test [10] it was 2.9 µM (inactive); in [11] it was 1.57 µM (inactive); in [16] it was 1.46 µM (inactive). The GI50 is 1.83 µM (inactive) in [17]; 22.3 µM (inactive) in test [12]; 0.537 µM (active) in test [13]; 2.86 µM (inactive) in test [14]; 2.94 µM (inactive) in [15].
With `CNc1nnc(CNc2ccc(-c3nnc(NC)n3N)cc2)n1N`, the GI50 in [18] is 39.5 µM (inactive); in test [19], > 100 µM (inactive); in [1], > 100 µM (inactive); in test [2], > 100 µM (inactive); in [3], > 100 µM (inactive); in [4], > 100 µM (inactive). Further, the GI50 in test [5], in test [6], in test [7], in test [8], in test [9] and in test [10] was > 100 µM (inactive) throughout. For the same compound, the GI50 in [17], in test [12], in test [13], in test [14] and in test [15] was > 100 µM (inactive) throughout.
Regarding `COc1ccc2oc3c(OC)c(OC)c(OC)cc3c(=O)c2c1`, the GI50 in [19] is > 100 µM (inactive); in test [1], > 100 µM (inactive); in test [2], > 100 µM (inactive); in test [3], > 100 µM (inactive); in test [4], 76 µM (inactive); in [5], > 100 µM (inactive). Further, the GI50 in test [6] is 21.4 µM (inactive); in test [7], > 100 µM (inactive); in test [8], > 100 µM (inactive); in test [9], > 100 µM (inactive); in test [11], 21.8 µM (inactive); in test [16], > 100 µM (inactive). In addition, the GI50 in [17] was > 100 µM (inactive); in test [12], 50.2 µM (inactive); in test [13] it was > 100 µM (inactive); in [14] it was > 100 µM (inactive); in test [15], > 100 µM (inactive).
With `CCC1=CCC(P(=O)(c2ccccc2)c2ccccc2)CC1C` (configuration not stated), the GI50 in test [18] is 22.2 µM (inactive); in [19], 31.3 µM (inactive); in test [1] it was 35 µM (inactive); in test [2] it was 22.9 µM (inactive); in test [3], 28 µM (inactive); in test [4], 35.3 µM (inactive). For the same compound, the GI50 is 38.5 µM (inactive) in [5]; 42.2 µM (inactive) in [6]; 44.7 µM (inactive) in test [7]; 74.5 µM (inactive) in test [8]; 21.7 µM (inactive) in test [9]; 35.1 µM (inactive) in [10]. The GI50 is 20.7 µM (inactive) in [11]; 22.9 µM (inactive) in [16]; 39.1 µM (inactive) in test [17]; 44.3 µM (inactive) in test [13]; > 100 µM (inactive) in test [14]; 35.2 µM (inactive) in test [15].
On to `CN1C(=O)C(C)(C)NS1(=O)=O`, for which the GI50 in [18], in test [19], in [1], in test [2], in test [3] and in test [4] was > 100 µM (inactive) each time. In addition, the GI50 in test [5], in test [6], in test [7], in test [8], in [9] and in test [10] was > 100 µM (inactive) each time. Besides, the GI50 in test [16], in [17], in test [12], in [13], in test [14] and in test [15] was > 100 µM (inactive) in each case.
With `c1cncc(C2N3CCCCC3[C@@H]3c4[nH]c5ccccc5c4CCN23)c1` (some centres not stated), the GI50 in test [18], in [19], in test [2], in [3], in test [4] and in test [5] was > 100 µM (inactive) each time. The GI50 is 21.1 µM (inactive) in test [6]; > 100 µM (inactive) in [7]; > 100 µM (inactive) in test [8]; > 100 µM (inactive) in [9]; > 100 µM (inactive) in [16]; > 100 µM (inactive) in [17]. In addition, the GI50 in test [12], in test [14] and in test [15] was > 100 µM (inactive) in each case.
`N/N=C1\C(=O)N(C2CCCCCC2)C(=O)C1C(=O)NC1CCCCCC1` (configuration not stated): the GI50 in test [18] was 19.8 µM (inactive); in [19] it was 25.4 µM (inactive); in [1], 35.1 µM (inactive); in test [3] it was 17.1 µM (inactive); in test [4] it was 32.7 µM (inactive); in test [5], 38 µM (inactive). The GI50 in test [6] was 40 µM (inactive); in test [7], 27.9 µM (inactive); in test [8], 55.3 µM (inactive); in test [9], 20.3 µM (inactive); in test [10], 39.5 µM (inactive); in test [11] it was 23.2 µM (inactive). Moreover, the GI50 was 42.7 µM (inactive) in test [17], > 10 µM (inactive) in test [12], 32.1 µM (inactive) in test [14] and 36.9 µM (inactive) in test [15].
On to `O=C(CC1(O)C(=O)Nc2ccccc21)c1cccc(O)c1` (configuration not stated), for which the GI50 in test [18] was > 100 µM (inactive); in test [1], > 100 µM (inactive); in [2], > 100 µM (inactive); in test [3] it was 48.3 µM (inactive); in test [4], > 100 µM (inactive); in test [5], > 100 µM (inactive). For the same compound, the GI50 in [6] was > 100 µM (inactive); in [7], > 100 µM (inactive); in test [8] it was > 100 µM (inactive); in [9], 46.1 µM (inactive); in test [11], > 100 µM (inactive); in [16], > 100 µM (inactive). The GI50 in test [17], in test [12], in [13], in test [14] and in [15] was > 100 µM (inactive) in each case.
As to `CCOC(=O)C(C)(c1cn(C)c2ccccc12)c1cn(C)c2ccccc12`, the GI50 in [18] is > 100 µM (inactive); in test [19] it was > 100 µM (inactive); in test [2], 34.3 µM (inactive); in test [3] it was > 100 µM (inactive); in test [4], > 100 µM (inactive); in [5], > 100 µM (inactive). Moreover, the GI50 in [6] was 44.5 µM (inactive); in [8] it was > 100 µM (inactive); in test [9], > 100 µM (inactive); in test [10], > 100 µM (inactive); in test [16], > 100 µM (inactive); in [17] it was > 100 µM (inactive). The figures for the GI50 in test [12] and in [14] were 76.2 µM (inactive) and > 100 µM (inactive), respectively.
As to `Cc1cc(N(CCC#N)CCC#N)ccc1/C=C(\NC(=O)/C=C/c1ccccc1)NC(=O)Nc1ccc(Cl)cc1`, the GI50 is 37.5 µM (inactive) in [18]; > 100 µM (inactive) in test [19]; > 100 µM (inactive) in [1]; 23.6 µM (inactive) in test [2]; 3.83 µM (inactive) in test [3]; 47.9 µM (inactive) in test [4]. For the same compound, the GI50 is > 100 µM (inactive) in [5]; 15.7 µM (inactive) in test [6]; > 100 µM (inactive) in test [7]; > 100 µM (inactive) in test [8]; 74.1 µM (inactive) in test [9]; 15 µM (inactive) in [10]. Further, the GI50 in [16] is > 100 µM (inactive); in [17], > 100 µM (inactive); in test [13], 1.83 µM (inactive); in test [14] it was > 100 µM (inactive); in test [15], 62.2 µM (inactive).
On to `Oc1c(NCn2nc(CCCCCCCCc3nn(CNc4ccc5ccccc5c4O)c(=S)o3)oc2=S)ccc2ccccc12`, for which the GI50 in test [1] was > 100 µM (inactive); in test [2], 11.9 µM (inactive); in [3], 30.4 µM (inactive); in test [4], > 100 µM (inactive); in test [5], > 100 µM (inactive); in test [6], 30.1 µM (inactive). In addition, the GI50 in test [7] was > 100 µM (inactive); in test [8] it was 75.5 µM (inactive); in test [9], 98.2 µM (inactive); in test [10], 28.2 µM (inactive); in test [11], 49 µM (inactive); in [16], 46.8 µM (inactive). Besides, the GI50 in [17] was > 100 µM (inactive); in test [12], 94.2 µM (inactive); in [14], 73.6 µM (inactive); in test [15], > 100 µM (inactive).
